Results taken from patent US6248739A, “Quinolinecarboxamides as antiviral agents” (Pharmacia & Upjohn Company, priority 1999, dated 2001).
pIC50: −log10 of the molar value.

Target: T1, HCMV polymerase (Human cytomegalovirus, UniProt P08546)
T1 construct: made in house; host or cells: recombinant baculovirus-infected SF-9 insect cells
Experiment: biochemical
Conditions: HCMV polymerase; SPA; modified assay: compounds in 100% DMSO, 4.5 mM DTT
Method: The HCMV polymerase assay is performed using a scintillation proximity assay (SPA) as described in several references, such as N. D. Cook, et al., Pharmaceutical Manufacturing International, pages 49-53 (1992); K. Takeuchi, Laboratory Practice, September issue (1992); U.S. Pat. No. 4,568,649 (1986); which are incorporated by reference herein. Reactions are performed in 96-well plates. The assay is conducted in 100 μl volume with 5.4 mM HEPES (pH 7.5), 11.7 mM KCl, 4.5 mM MgCl2, 0.36 mg/ml BSA, and 90 nM ^3 H-dTTP. Assays are run with and without CHAPS, (3-[(3-Cholamidopropyl)dimethylammonio]-1-propane-sulfonate) at a final concentration of 2 mM. HCMV polymerase is diluted in enzyme dilution buffer containing 50% glycerol, 250 mM NaCl, 10 mM HEPES (pH 7.5), 100 μg/ml BSA, and 0.01% sodium azide. The HCMV polymerase, which is expressed in recombinant baculovirus-infected SF-9 cells and purified according to literature procedures, is added at 10% (or 10 μl) of the final reaction volume, i.e., 100 μl. Compounds are diluted in 50% DMSO and 10 μl are added to each well. Control wells contain an equivalent concentration of DMSO. Unless noted otherwise, reactions are initiated via the addition of 6 nM biotinylated poly(dA)-oligo(dT) template/primer to reaction mixtures containing the enzyme, substrate, and compounds of interest. Plates are incubated in a 25 C. or 37 C. H2 O bath and terminated via the addition of 40 μl/reaction of 0.5 M EDTA (pH 8) per well. Reactions are terminated within the time-frame during which substrate incorporation is linear and varied depending upon the enzyme and conditions used, i.e., 30 min. for HCMV polymerase. Ten μl of streptavidin-SPA beads (20 mg/ml in PBS/10% glycerol) are added following termination of the reaction. Plates are incubated 10 min. at 37 C., then equilibrated to room temperature, and counted on a Packard Topcount. Linear regressions are performed and IC50 's are calculated using computer software.
A modified version of the above HCMV polymerase assay is performed as described above, but with the following changes: Compounds are diluted in 100% DMSO until final dilution into assay buffer. In the previous assay, compounds are diluted in 50% DMSO. 4.5 mM dithiotherotol (DTT) is added to the polymerase buffer.

T1 sequence (P08546 whole entry): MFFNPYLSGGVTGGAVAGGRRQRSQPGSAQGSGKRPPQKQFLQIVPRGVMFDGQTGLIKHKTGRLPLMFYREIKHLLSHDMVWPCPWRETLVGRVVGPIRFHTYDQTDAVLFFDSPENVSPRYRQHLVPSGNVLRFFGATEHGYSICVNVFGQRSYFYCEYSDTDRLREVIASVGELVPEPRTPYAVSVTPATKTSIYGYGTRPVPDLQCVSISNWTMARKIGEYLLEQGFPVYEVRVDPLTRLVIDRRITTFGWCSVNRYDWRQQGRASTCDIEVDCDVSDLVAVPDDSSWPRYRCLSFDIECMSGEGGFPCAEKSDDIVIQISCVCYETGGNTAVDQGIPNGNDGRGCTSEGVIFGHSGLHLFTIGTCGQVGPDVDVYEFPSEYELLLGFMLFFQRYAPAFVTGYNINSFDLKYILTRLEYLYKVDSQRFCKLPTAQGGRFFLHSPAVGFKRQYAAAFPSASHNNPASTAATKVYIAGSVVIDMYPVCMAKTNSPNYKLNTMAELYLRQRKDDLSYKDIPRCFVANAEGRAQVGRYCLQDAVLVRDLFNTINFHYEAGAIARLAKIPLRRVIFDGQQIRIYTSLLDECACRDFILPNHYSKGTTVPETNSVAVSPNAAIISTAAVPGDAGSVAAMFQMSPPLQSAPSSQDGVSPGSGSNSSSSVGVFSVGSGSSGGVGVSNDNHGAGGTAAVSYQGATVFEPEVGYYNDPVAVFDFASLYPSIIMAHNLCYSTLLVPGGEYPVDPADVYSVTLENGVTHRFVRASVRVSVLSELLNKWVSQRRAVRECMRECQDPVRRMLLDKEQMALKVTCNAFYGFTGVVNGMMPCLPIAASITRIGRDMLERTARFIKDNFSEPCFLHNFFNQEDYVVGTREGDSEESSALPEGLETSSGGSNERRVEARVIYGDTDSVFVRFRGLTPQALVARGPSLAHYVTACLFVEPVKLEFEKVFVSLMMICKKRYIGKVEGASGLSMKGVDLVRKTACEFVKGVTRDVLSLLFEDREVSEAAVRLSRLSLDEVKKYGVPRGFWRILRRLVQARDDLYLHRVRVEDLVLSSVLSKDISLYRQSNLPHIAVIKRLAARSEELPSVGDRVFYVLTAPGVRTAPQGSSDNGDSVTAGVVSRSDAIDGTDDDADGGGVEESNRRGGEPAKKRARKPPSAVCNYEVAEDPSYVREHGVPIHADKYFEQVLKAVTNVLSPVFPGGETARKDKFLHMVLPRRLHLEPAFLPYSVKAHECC

SMILES | pIC50
Cn1cc(C(=O)NCc2ccc(C#N)cc2)c(=O)c2cc(C#CCO)ccc21 [Example 43, N-(4-Cyanobenzyl)-6-(3-hydroxy-1-propynyl)-1-methyl-4-oxo-1,4-dihydro-3-quinolinecarboxamide] | 5.03
Cn1cc(C(=O)NCc2ccc(Cl)cc2)c(=O)c2cc(CN(CCO)CCO)ccc21 [Example 44, 6-((Bis(2-hydroxyethyl)amino)methyl)-N-(4-chlorobenzyl)-1-1-methyl-4-oxo-1,4-dihydro-3-quinolinecarboxamide.] | 5.03
CN(CCO)Cc1ccc2c(c1)c(=O)c(C(=O)NCc1ccc(Cl)cc1)cn2C [Example 45, N-(4-Chlorobenzyl)-6-(((2-hydroxyethyl)(methyl)amino)-methyl)-1-methyl-4-oxo-1,4-dihydro-3-quinolinecarboxamide] | 4.92
Cn1cc(C(=O)NCc2ccc(Cl)cc2)c(=O)c2cc(CN3CCCOCC3)ccc21 [Example 46, N-(4-Chlorobenzyl)-1-methyl-6-(1,4-oxazepan-4-ylmethyl)-4-oxo-1,4-dihydro-3-quinolinecarboxamide] | 5.26
Cn1cc(C(=O)NCc2ccc(Cl)cc2)c(=O)c2cc(CN3CCCSCC3)ccc21 [Example 47, N-(4-Chlorobenzyl)-1-methyl-4-oxo-6-(1,4-thiazepan-4-ylmethyl)-1,4-dihydro-3-quinolinecarboxamide] | 5.14
Cn1cc(C(=O)NCc2ccc(Cl)cc2)c(=O)c2cc(CN3C[C@@H]4C[C@H]3CO4)ccc21 [Example 48, N-(4-Chlorobenzyl)-1-methyl-6-(2-oxa-5-azabicyclo(2.2. 1]-hept-5-ylmethyl)-4-oxo-1,4-dihydro-3-quinolinecarboxamide] | 4.87
Cn1cc(C(=O)NCc2ccc(Cl)cc2)c(=O)c2cc(CN3CCOc4ccccc43)ccc21 [Example 49, N-(4-Chlorobenzyl)-6-(2,3-dihydro-4H-1,4-benzoxazin-4-ylmethyl)-1-methyl-4-oxo-1,4-dihydro-3-quinolinecarboxamide] | 5.66
Cn1cc(C(=O)NCc2ccc(Cl)cc2)c(=O)c2cc(CN(CCO)Cc3ccccc3)ccc21 [Example 50, 6-((Benzyl(2-hydroxyethyl)amino)methyl)-N-(4-chlorobenzyl)-1-methyl-4-oxo-1,4-dihydro-3-quinolinecarboxamide] | 4.94
Cn1cc(C(=O)NCc2ccc(Cl)cc2)c(=O)c2cc(CN3CCC(F)(F)CC3)ccc21 [Example 52, N-(4-chlorobenzyl)-6-((4,4-difluoro-1-piperidinyl)methyl)-1-methyl-4-oxo-1,4-dihydro-3-quinolinecarboxamide] | 5.02
Cn1cc(C(=O)NCc2ccc(Cl)cc2)c(=O)c2cc(CN3CC=C(F)CC3)ccc21 [Example 53, N-(4-Chlorobenzyl)-6-((4-fluoro-3,6-dihydro-1(2H)-pyridinyl)methyl)-1-methyl-4-oxo-1,4-dihydro-3-quinolinecarboxamide] | 4.93
C=Cc1ccc2c(c1)c(=O)c(C(=O)NCc1ccc(Cl)cc1)cn2C [Example 54, N-(4-Chlorobenzyl)-1-methyl-4-oxo-6-vinyl-1,4-dihydro-3-quinolinecarboxamide] | 5.48
COCCOCCOCCn1cc(C(=O)NCc2ccc(Cl)cc2)c(=O)c2cc(CN3CCOCC3)ccc21 [Example 56, N-(4-Chlorobenzyl)-1-{2-[2-(2-methoxyethoxy)ethoxy]ethyl}-6-(4-morpholinylmethyl)-4-oxo-1,4-dihydro-3-quinolinecarboxamide] | 5.52
O=C(NCc1ccc(Cl)cc1)c1cn(CCSc2ccccc2)c2ccc(CN3CCOCC3)cc2c1=O [Example 72] | 5.52

The next molecules have a higher pIC50 than those just listed; values first:

pIC50 | SMILES
5.72 | C#CCn1cc(C(=O)NCc2ccc(Cl)cc2)c(=O)c2cc(CN3CCOCC3)ccc21 [Example 59, N-(4-Chlorobenzyl)-6-(4-morpholinylmethyl)-4-oxo-1-(2-propynyl)-1,4-dihydro-3-quinolinecarboxamide]
5.85 | CCOCCOCCn1cc(C(=O)NCc2ccc(Cl)cc2)c(=O)c2cc(CN3CCOCC3)ccc21 [Example 58, N-(4-Chlorobenzyl)-1-[2-(2-ethoxyethoxy)ethyl]-6-(4-morpholinylmethyl)-4-oxo-1,4-dihydro-3-quinolinecarboxamide]
5.89 | Cn1cc(C(=O)NCc2ccc(Cl)cc2)c(=O)c2cc(CN=[N+]=[N-])ccc21 [Example 51, 6-(Azidomethyl)-N-(4-chlorobenzyl)-1-methyl-4-oxo-1,4-dihydro-3-quinolinecarboxamide]
5.89 | CN(Cc1ccc2c(c1)c(=O)c(C(=O)NCc1ccc(Cl)cc1)cn2C)CC(O)c1ccccc1 (stereo not shown) [Example 63, N-(4-Chlorobenzyl)-6-{[(2-hydroxy-2-phenylethyl)(methyl)-amino]methyl}-1-methyl-4-oxo-1,4-dihydro-3quinolinecarboxamide]
5.92 | O=C(NCc1ccc(Cl)cc1)c1cn(CCOCCO)c2ccc(CN3CCOCC3)cc2c1=O [Example 57, N-(4-Chlorobenzyl)-1-[2-(2-hydroxyethoxy)ethyl]-6-(4-morpholinylmethyl)-4-oxo-1,4-dihydro-3-quinolinecarboxamide]
5.96 | CCSCCn1cc(C(=O)NCc2ccc(Cl)cc2)c(=O)c2cc(CN3CCOCC3)ccc21 [Example 60, N-(4-Chlorobenzyl)-1-[2-(ethylsulfanyl)ethyl]-6-(4-morpholinylmethyl)-4-oxo-1,4-dihydro-3-quinolinecarboxamide]
5.96 | O=C(NCc1ccc(Cl)cc1)c1cn(CCCSCCCO)c2ccc(CN3CCOCC3)cc2c1=O [Example 66, N-(4-Chlorobenzyl)-1-{3-[(3-hydroxypropyl)sulfanyl]propyl}-6-(4-morpholinylmethyl)-4-oxo-1,4-dihydro-3-quinolinecarboxamide]
5.96 | CSCn1cc(C(=O)NCc2ccc(Cl)cc2)c(=O)c2cc(CN3CCOCC3)ccc21 [Example 73]
5.96 | C[S+]([O-])Cn1cc(C(=O)NCc2ccc(Cl)cc2)c(=O)c2cc(CN3CCOCC3)ccc21 (stereo not shown) [Example 79, N-(4-Chlorobenzyl)-1-[(methylsulfinyl)methyl]-6-(4-morpholinylmethyl)-4-oxo-1,4-dihydro-3-quinolinecarboxamide]
5.96 | CS(=O)(=O)Cn1cc(C(=O)NCc2ccc(Cl)cc2)c(=O)c2cc(CN3CCOCC3)ccc21 [Example 80, N-(4-Chlorobenzyl)-1-[(methylsulfonyl)methyl]-6-(4-morpholinylmethyl)-4-oxo-1,4-dihydro-3-quinolinecarboxamide]
6.02 | O=C(NCc1ccc(Cl)cc1)c1cn(CCN(CCO)CCO)c2ccc(CN3CCOCC3)cc2c1=O [Example 64]
6.03 | CC[S+]([O-])CCn1cc(C(=O)NCc2ccc(Cl)cc2)c(=O)c2cc(CN3CCOCC3)ccc21 (stereo not shown) [Example 68, N-(4-Chlorobenzyl)-1-[2-(ethylsulfinyl)ethyl]-6-(4-morpholinylmethyl)-4-oxo-1,4-dihydro-3-quinolinecarboxamide]
6.05 | CCS(=O)(=O)CCn1cc(C(=O)NCc2ccc(Cl)cc2)c(=O)c2cc(CN3CCOCC3)ccc21 [Example 69, N-(4-Chlorobenzyl)-1-[2-(ethylsulfonyl)ethyl]-6-(4-morpholinylmethyl)-4-oxo-1,4-dihydro-3-quinolinecarboxamide]
6.06 | O=C(NCc1ccc(Cl)cc1)c1cn(CCC[S+]([O-])CCCO)c2ccc(CN3CCOCC3)cc2c1=O (stereo not shown) [Example 70]
6.10 | O=C(NCc1ccc(Cl)cc1)c1cn(CCCS(=O)(=O)CCCO)c2ccc(CN3CCOCC3)cc2c1=O [Example 71, N-(4-Chlorobenzyl)-1-(3-[(3-hydroxypropyl)sulfonyl]propyl)-6-(4-morpholinylmethyl)-4-oxo-1,4-dihydro-3-quinolinecarboxamide]
6.15 | CS(=O)(=O)CCCn1cc(C(=O)NCc2ccc(Cl)cc2)c(=O)c2cc(CN3CCOCC3)ccc21 [Example 67, N-(4-Chlorobenzyl)-1-[3-(methylsulfonyl)propyl]-6-(4-morpholinylmethyl)-4-oxo-1,4dihydro-3-quinolinecarboxamide]
6.46 | O=C(NCc1ccc(Cl)cc1)c1cn(C[S+]([O-])c2ccccc2)c2ccc(CN3CCOCC3)cc2c1=O (stereo not shown) [Example 81, N-(4-Chlorobenzyl)-6-(4-morpholinylmethyl)-4-oxo-1-[(phenylsulfinyl)methyl]-1,4-dihydro-3-quinolinecarboxamide]
6.57 | Cn1cc(C(=O)NCc2ccc(Cl)cc2)c(=O)c2cc(CN3CC(O)(O)C3)ccc21 [Example 78, N-(4-Chlorobenzyl)-6-[(3,3-dihydroxy-1-azetidinyl)methyl]-1-methyl-4-oxo-1,4-dihydro-3-quinolinecarboxamide]
